The record followed here is patent US7402697B2, “Antibacterial agents” (Idexx Laboratories Inc., priority 2004, dated 2008).

The nature of data set [1]: Serum concentration as a function of time after subcutaneous administration to dogs (HPLC). As to conditions: for clearance of each isomer, serum concentration as percent of CmaxR or CmaxS as a function of time: 40 mg/kg of A2 as equimolar mixture of (R) and (S) acylamido configuration; for clearance rate: compared with NUFLOR®. Type of data set: in vivo. Here is the method:
The pharmaceutical composition was then administered to dogs at a dose of 40 mg/kg. Blood samples were taken from the dog at various time points and serum separated using standard methods well known to those skilled in the art. The serum was then analyzed using HPLC according to the following procedure: A C18 Sep-Pak Plus® cartridge (Sep-Pak) (commercially available from Waters of Milford, Mass.) was rinsed with 5 mL of methanol followed by 5 mL of water and loaded with 1 mL of serum. After loading, the Sep-Pak was washed with 2 mL of water, 2 mL of 15% aqueous acetonitrile, and 3 mL of hexane. The Sep-Pak was then eluted with 4 mL of acetonitrile and the eluant collected. The acetonitrile was evaporated using a stream of nitrogen to provide a residue and the resulting residue was reconstituted with 1 mL of 25% aqueous acetonitrile to provide an assay solution. 50 μL of the assay solution was then analyzed by HPCL using high pressure liquid chromatography equipped with a Beckman Coulter Ultraphere C-18 5 μM×4.6 mm×250 mm analytical column eluted at a flow of 1.2 mL/min. using a gradient of water and acetonitrile according to the following profile: [table] The HPLC system was interfaced to a UV detector operated at 223 nm. […] The pharmaceutical composition was then administered to dogs subcutaneously at a a dose of 40 mg/kg. Blood samples were taken from the dogs at various time points and the blood samples treated as described above. The serum was then analyzed using the HPLC procedure described above. […] The pharmaceutical composition was then administered to dogs subcutaneously at a a dose of 40 mg/kg. Blood samples were taken from the dogs at various time points and the blood samples treated as described above. The serum was then analyzed using the HPLC procedure described above. […] The maximum serum level was determined for each isomer (CmaxR and CmaxS, respectively).

The test system of the next data set is B. subtitis. Kind of data set: Minimum inhibitory concentration, disk diffusion susceptibility testing. Type of data set: cell-based. Here is the method:
(§1) The activity of a Fenicol Compound against a bacteria is determined using standard dilution tests. For example, the minimum inhibitory concentrations can be determined using the disk diffusion susceptibility testing method described in Clinical Microbiology Procedures Handbook, volume 1, edited by Henry D. Isenberg, American Society for Microbiology, 1992, section 5.1 or the well known method of Bauer et al. “Antibiotic Susceptibility Testing by a Standardized Single Disc Method,” Amer. J. Clin. Pathol., 45, p. 493-496.
In general terms: A growth-free zone around the sample is the usual read-out of agar diffusion tests.

The next data set has as its system E. coli. The data set is described as above. Conditions: for Minimum Inhibitory Concentration: E. coli. It counts as cell-based. Here is the method:
as §1

Another data set relates to E. faecalis. The data set is described as above. It counts as cell-based. Here is the method:
as §1

In another data set the test system is S. aureaus. The data set is described as above. It counts as cell-based. Here is the method:
as §1

The next data set has as its system S. pyogenes. The description is as above. Type of data set: cell-based. Here is the method:
as §1

A further data set has as its system B. bronchoseptica. The description is as above. Type of data set: cell-based. Here is the method: as §1
A further data set has as its system K. pneumoniae. The data set is described as above. Type of data set: cell-based. Here is the method:
as §1

In brackets after ≈: the same amount, converted by molar mass. Entries after “also recorded” stand apart in the source; their conditions may differ.

For `C[C@@H](C(=O)N[C@H](CF)[C@H](O)c1ccc(S(C)(=O)=O)cc1)C(F)(F)F`, in data set [1], the “clearance of each isomer, serum concentration as percent of CmaxR or CmaxS as a function of time” value is given as “decreases rapidly”.
`CC(C(=O)NC(CF)C(O)c1ccc(S(C)(=O)=O)cc1)C(F)(F)F` (mixture of isomers) [A2]: the “Minimum Inhibitory Concentration” value came out at 5 µg/mL in the data set with B. subtitis; 7 µg/mL with E. coli; 5 µg/mL in the data set with E. faecalis; 7 µg/mL with S. aureaus; 5 µg/mL with S. pyogenes. The compound also yielded a maximum serum concentration in data set [1] (40 mg/kg) of about 5 µg/mL. Moreover, in data set [1] (40 mg/kg), the “serum concentration compared with NUFLOR®” value is “much higher serum concentration”. Moreover, the clearance rate result in data set [1] (40 mg/kg) is “much slower than the clearance rate of NUFLOR®; also recorded: cleared more slowly than is NUFLOR®”.
In the case of `CC(Cl)C(=O)NC(CF)C(O)c1ccc(S(C)(=O)=O)cc1` (mixture of isomers) [E2 + I2 (Racemic Mixture)], the “Minimum Inhibitory Concentration” value with B. bronchoseptica came out at 3 µg/mL; in the data set with B. subtitis, 0.5 µg/mL; in the data set with E. coli, 3 µg/mL; in the data set with K. pneumoniae it was 5 µg/mL; with S. aureaus, 2 µg/mL.
For `CC(F)C(=O)NC(CF)C(O)c1ccc(S(C)(=O)=O)cc1` (mixture of isomers) [E5 + I5 (Racemic Mixture)], the “Minimum Inhibitory Concentration” value in the data set on B. bronchoseptica is over 10 µg/mL; in the data set on B. subtitis, 1 µg/mL; in the data set on E. coli, 5 µg/mL; in the data set on E. faecalis, 3 µg/mL; in the data set with K. pneumoniae, 5 µg/mL; in the data set on S. aureaus it was 5 µg/mL. The “Minimum Inhibitory Concentration” value in the data set with S. pyogenes stood at 5 µg/mL.
As to `CC(C)C(=O)N[C@H](CF)[C@H](O)c1ccc(S(C)(=O)=O)cc1` [A1], the “Minimum Inhibitory Concentration” value with B. subtitis was found to be 2 µg/mL; in the data set on E. coli it was 5 µg/mL; in the data set on S. aureaus, 3 µg/mL; with S. pyogenes, 5 µg/mL. Moreover, in data set [1] (40 mg/kg), the maximum serum concentration was about 7 µg/mL. Also, in data set [1] (40 mg/kg), the “serum concentration compared with NUFLOR®” value is given as “higher serum concentration than NUFLOR®”. Also, in data set [1] (40 mg/kg), the clearance rate result is given as “cleared much more slowly; also recorded: cleared more slowly than NUFLOR®”.
On to `C[C@H](C(=O)N[C@H](CF)[C@H](O)c1ccc(S(C)(=O)=O)cc1)C(F)(F)F` [A2 wherein the acylamido group has the (R) stereochemical co], for which the “clearance of each isomer, serum concentration as percent of CmaxR or CmaxS as a function of time” value in data set [1] (40 mg/kg) is on record as “cleared more slowly”.
Still for that read-out and setting: to `C[C@H](C(=O)N[C@H](CF)[C@H](O)c1ccc(S(C)(=O)=O)cc1)C(F)(F)F` [A2 wherein the acylamido group is present in the (R) stereoc] belongs “decreases much more slowly”.
As for `CS(=O)(=O)c1ccc([C@@H](O)[C@@H](CF)NC(=O)CCl)cc1` [D-threo-2-chloro-N-[1-(fluoromethyl)-2-hydroxy-2-[4-methylsulfonyl)phenyl]ethyl]-acetamide], the “Minimum Inhibitory Concentration” value came out at 3 µg/mL in the data set with B. bronchoseptica; 0.5 µg/mL in the data set on B. subtitis; 3 µg/mL in the data set with E. coli; 5 µg/mL with K. pneumoniae; 2 µg/mL in the data set on S. aureaus.
On to `CS(=O)(=O)c1ccc([C@@H](O)[C@@H](CF)NC(=O)C(Cl)Cl)cc1` [Fluorfenicol, reference compound], for which the MIC in the data set on B. bronchoseptica came to 1 µg/mL (≈ 2.79 µM); in the data set with B. subtitis, 1 µg/mL (≈ 2.79 µM); with E. coli (Escherichia coli, read-out: Minimum Inhibitory Concentration), 1 µg/mL (≈ 2.79 µM); with E. faecalis (Enterococcus faecalis) it was 3 µg/mL (≈ 8.37 µM); in the data set with K. pneumoniae (Klebsiella pneumoniae), 3 µg/mL (≈ 8.37 µM); against S. aureaus, 1 µg/mL (≈ 2.79 µM). Also, the MIC against S. pyogenes (Streptococcus pyogenes) is 1 µg/mL (≈ 2.79 µM). Further, the maximum serum concentration entry in data set [1] (40 mg/kg) is recorded as “less than 0.8 μg/mL”.
